Experiments:
human CB2 receptors [1] = target: T1, human CB2 receptors (Homo sapiens, UniProt P34972); assay: Cyclic AMP assay, hCB2 CHO cells; format: cell-based; details: for agonist behaviour (inhibition of forskolin-stimulated cAMP production): CHO cells, human CB2
T1 construct: host or cells: CHO cells
Description: (§1) CHO cells transfected with human CB1 or CB2 receptors were washed with PBS, detached with trypsin, and centrifuged for 10 min at 200 × g. The pellet containing 1 × 10^6 cells/assay was suspended in 0.5 ml of buffer containing150 mM NaCl, 2.7 mM KCl, 0.37 mM NaH2PO4, 1 mM MgSO4, 1 mM CaCl2, 5 mM HEPES, 10 mM MgCl2, and 5 mM glucose, at pH 7.4 and 37 °C. Cells were pre-incubated with 0.5 mM of the phosphodiesterase inhibitor 4-(3-butoxy-4-methoxybenzyl)-2-imidazolidinone (Ro 20–1724;) for 10 min in a shaking bath at 37 °C. The potency of the examined compounds to inhibit adenylate cyclase activity was determined in the presence of forskolin 1-µM stimulation. The reaction was terminated by the addition of cold 6% trichloroacetic acid (TCA) and the final aqueous solution was tested for cyclic AMP levels by a competition protein binding assay (AlphaScreen cAMP Detection Kit, Cat. Number 6760635D, Perkin Elmer Life and Analytical Sciences, USA) following the manufacturer’s instructions; Vincenzi et al. [2013]).
(§2) The protein concentration was determined according to a Bio-Rad method (500–0006; Bio-Rad Laboratories, Hercules, CA, USA) with bovine serum albumin as a reference standard. Inhibitory binding constants, Ki, were calculated from the IC50 values according to the Cheng and Prusoff equation: Ki = IC50/(1 + [C*]/KD*), where [C*] is the concentration of the radioligand and KD* its dissociation constant. Functional experiments were analyzed by non-linear regression analysis using the equation for a sigmoid concentration–response curve (GraphPad Prism, USA). All the data are expressed as the mean ± SEM of three independent experiments.

human CB1 receptors [2] = target: T2, human CB1 receptors (Homo sapiens, UniProt P21554); assay: Cyclic AMP assay, hCB1 CHO cells; format: cell-based; details: for agonist behaviour (inhibition of forskolin-stimulated cAMP production): CHO cells, human CB1
T2 construct: host or cells: CHO cells
T2 sequence (P21554 whole entry): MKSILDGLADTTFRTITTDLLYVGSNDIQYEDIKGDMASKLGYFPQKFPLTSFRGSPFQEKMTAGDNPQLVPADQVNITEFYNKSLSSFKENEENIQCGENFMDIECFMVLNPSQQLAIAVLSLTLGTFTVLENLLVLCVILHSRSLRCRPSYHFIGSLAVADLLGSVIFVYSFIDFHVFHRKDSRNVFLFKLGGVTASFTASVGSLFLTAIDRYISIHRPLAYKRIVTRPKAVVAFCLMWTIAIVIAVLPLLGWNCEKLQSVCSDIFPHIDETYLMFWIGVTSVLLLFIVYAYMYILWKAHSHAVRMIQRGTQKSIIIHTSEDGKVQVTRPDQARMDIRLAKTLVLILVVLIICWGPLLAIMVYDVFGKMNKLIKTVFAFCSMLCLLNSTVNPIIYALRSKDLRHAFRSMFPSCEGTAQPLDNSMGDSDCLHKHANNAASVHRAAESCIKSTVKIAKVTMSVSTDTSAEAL
Description: as §1, §2

CB1 receptors = target: CB1 receptors; parameters: method as in Howlett et al. [2002]; Hess et al. [2015]; details: ref Howlett et al. [2002]; Hess et al. [2015]; read-out: CB1 receptor Ki; cited from earlier work
CB2 receptors = target: CB2 receptors; parameters: method as in Howlett et al. [2002]; Hess et al. [2015]; details: ref Howlett et al. [2002]; Hess et al. [2015]; read-out: CB2 receptor Ki; cited from earlier work
murine CB2 receptors = target: T3, murine CB2 receptors (Mus musculus, UniProt P47936); assay: [3H]-CP-55,940 competition binding, mouse spleen membranes
T3 construct: membranes from mouse brain and spleen were used, respectively; from tissue; host or cells: mouse spleen membranes, CD-1 mice
T3 sequence (P47936 whole entry): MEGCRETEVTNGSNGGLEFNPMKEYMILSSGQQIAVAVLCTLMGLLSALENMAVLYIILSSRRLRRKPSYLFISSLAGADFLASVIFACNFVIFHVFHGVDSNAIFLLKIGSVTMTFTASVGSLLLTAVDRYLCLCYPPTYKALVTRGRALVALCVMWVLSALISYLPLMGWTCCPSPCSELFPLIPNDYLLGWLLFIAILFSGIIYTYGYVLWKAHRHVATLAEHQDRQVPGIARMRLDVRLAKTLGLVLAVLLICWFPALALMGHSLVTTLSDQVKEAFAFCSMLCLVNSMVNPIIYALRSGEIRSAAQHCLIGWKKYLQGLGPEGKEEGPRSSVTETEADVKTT
Description: (§3) To evaluate the affinity of synthetic cannabinoids for murine CB1 and CB2 receptors, membranes from mouse brain and spleen were used, respectively. Following excision from mice, tissues were suspended in 50 mM Tris HCl, pH 7.4 at 4 °C. The mouse brain and spleen tissues were homogenized with a Polytron and subsequently centrifuged for 10 min at 2000 × g. The resulting supernatants were filtered, centrifuged for 20 min at 40,000 × g and the pellets were used for competition binding experiments (Vincenzi et al. [2013]).
(§4) Competition binding experiments were carried out incubating 0.5 nM [^3H]-CP-55,940 (Perkin Elmer Life and Analytical Sciences, USA) and different concentrations of the tested compounds for 90 or 60 min at 30 °C for CB1 or CB2 receptors, respectively. […] Non-specific binding was determined in the presence of 1 mM WIN 55,212–2 (Vincenzi et al. [2013]). Bound and free radioactivity were separated by filtering the assay mixture through Whatman GF/C glass fiber filters using a Brandel cell harvester (Brandel Instruments, Unterföhring, Germany). The filter-bound radioactivity was counted using a Packard Tri Carb 2810 TR scintillation counter (Perkin Elmer Life and Analytical Sciences, USA).
(§5) The protein concentration was determined according to a Bio-Rad method (500–0006; Bio-Rad Laboratories, Hercules, CA, USA) with bovine serum albumin as a reference standard. […]

human CB1 receptors [3] = target: T2, human CB1 receptors; assay: [3H]-CP-55,940 competition binding, hCB1 CHO membranes; details: for selectivity index (ratio Ki CB2 / Ki CB1): human CB receptors
Description: (§6) CHO cells transfected with human CB1 or CB2 receptors (Perkin Elmer Life and Analytical Sciences, USA) were grown adherently and maintained in Ham’s F12 containing 10% fetal bovine serum, penicillin (100 U/ml), streptomycin (100 µg/ml), and Geneticin (G418, 0.4 mg/ml) at 37 °C in 5% CO2/95% air. To obtain membranes, cells were washed with PBS and scraped off with ice-cold hypotonic buffer (5 mM Tris HCl, 2 mM EDTA, pH 7.4). The cell suspension was homogenized with a Polytron and then centrifuged for 30 min at 40,000 × g. The membrane pellet was suspended in 50 mM Tris HCl buffer (pH 7.4) containing 2.5 mM EDTA, 5 mM MgCl2, 0.5% BSA for CB1 receptors or in 50 mM Tris HCl (pH 7.4), 1 mM EDTA, 5 mM MgCl2, 0.5% BSA for CB2 receptors (Vincenzi et al. [2013]).
(§7) Competition binding experiments were carried out incubating 0.5 nM [^3H]-CP-55,940 (Perkin Elmer Life and Analytical Sciences, USA) and different concentrations of the tested compounds for 90 or 60 min at 30 °C for CB1 or CB2 receptors, respectively. For human cannabinoid receptors, membranes obtained from CHO cells transfected with human CB1 or CB2 receptors (2 µg protein/100 µl) were used. Competition binding experiments at murine cannabinoid receptors were performed with mouse brain membranes (40 µg protein/100 µl) or with mouse spleen membranes (80 µg protein/100 µl) for CB1 receptors or CB2 receptors, respectively. Non-specific binding was determined in the presence of 1 mM WIN 55,212–2 (Vincenzi et al. [2013]). Bound and free radioactivity were separated by filtering the assay mixture through Whatman GF/C glass fiber filters using a Brandel cell harvester (Brandel Instruments, Unterföhring, Germany). The filter-bound radioactivity was counted using a Packard Tri Carb 2810 TR scintillation counter (Perkin Elmer Life and Analytical Sciences, USA).
as §2

murine CB1 receptors = target: T4, murine CB1 receptors (Mus musculus, UniProt P47746); assay: [3H]-CP-55,940 competition binding, mouse brain (cortex) membranes; details: for selectivity index (ratio Ki CB2 / Ki CB1): murine CB receptors
T4 construct: membranes from mouse brain and spleen were used, respectively; from tissue
T4 sequence (P47746 whole entry): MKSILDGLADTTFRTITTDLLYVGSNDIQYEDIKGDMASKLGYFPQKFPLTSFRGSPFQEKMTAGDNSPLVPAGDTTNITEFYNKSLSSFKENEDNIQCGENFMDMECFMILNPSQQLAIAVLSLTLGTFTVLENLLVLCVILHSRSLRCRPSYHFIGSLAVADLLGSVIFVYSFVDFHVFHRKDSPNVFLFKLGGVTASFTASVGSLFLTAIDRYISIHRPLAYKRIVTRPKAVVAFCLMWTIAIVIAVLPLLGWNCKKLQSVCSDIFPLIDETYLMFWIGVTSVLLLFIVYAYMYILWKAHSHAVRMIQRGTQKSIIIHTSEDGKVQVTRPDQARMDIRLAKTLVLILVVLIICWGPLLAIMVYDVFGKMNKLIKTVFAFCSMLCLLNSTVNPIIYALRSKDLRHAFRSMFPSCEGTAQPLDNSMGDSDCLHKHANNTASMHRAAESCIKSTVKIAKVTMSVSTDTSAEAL
Description: as §3, §7, §2

human CB2 receptors [4] = target: T1, human CB2 receptors; assay: [3H]-CP-55,940 competition binding, hCB2 CHO membranes
Description: as §6, with “The membrane pellet was suspended in 50 mM Tris HCl buffer (pH 7.4) containing 2.5 mM EDTA, 5 mM MgCl2, 0.5% BSA for CB1 receptors or in 50 mM Tris HCl (pH 7.4), 1 mM EDTA, 5 mM MgCl2, 0.5% BSA for CB2 receptors (Vincenzi et al. [2013]).” left out
as §4, §5

T1 sequence (P34972 whole entry): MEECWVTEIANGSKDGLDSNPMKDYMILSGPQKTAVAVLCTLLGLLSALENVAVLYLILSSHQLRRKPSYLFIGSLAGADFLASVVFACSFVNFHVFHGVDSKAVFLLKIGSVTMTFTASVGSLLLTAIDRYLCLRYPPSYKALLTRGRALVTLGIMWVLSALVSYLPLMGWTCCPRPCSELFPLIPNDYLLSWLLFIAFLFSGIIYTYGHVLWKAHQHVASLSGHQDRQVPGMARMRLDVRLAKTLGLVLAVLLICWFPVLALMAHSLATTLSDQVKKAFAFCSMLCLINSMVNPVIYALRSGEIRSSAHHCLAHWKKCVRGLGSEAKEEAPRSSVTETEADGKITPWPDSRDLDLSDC

## Cc1ccc(C(=O)c2cn(CCCCCF)c3ccccc23)c2ccccc12 [MAM-2201, 1-[(5-fluoropentyl)-1H-indol-3-yl](4-methyl-1-naphthalenyl) methanone]
Human CB2 receptors [1]
  IC50: 22.4 ± 3.8 nM
  agonist behaviour (inhibition of forskolin-stimulated cAMP production): full agonists
Human CB1 receptors [2]
  IC50: 1.26 ± 0.56 nM
  agonist behaviour (inhibition of forskolin-stimulated cAMP production): full agonists
CB1 receptors
  Ki: 2.07 ± 0.82 nM
CB2 receptors
  Ki: 0.582 ± 0.123 nM
Murine CB2 receptors
  Ki: 9.6 ± 1.9 nM
Human CB1 receptors [3]
  Ki: 1.11 ± 0.12 nM
  selectivity index (ratio Ki CB2 / Ki CB1): 9.3
Murine CB1 receptors
  Ki: 1.07 ± 0.23 nM
  selectivity index (ratio Ki CB2 / Ki CB1): 9.0
Human CB2 receptors [4]
  Ki: 10.3 ± 2.1 nM

## O=C(c1cccc2ccccc12)c1cn(CCCCCF)c2ccccc12 [AM-2201, 1-[(5-Fluoropentyl)-1H-indol-3-yl](1-naphthylenyl) methanone]
Human CB2 receptors [1]
  IC50: 31.8 ± 2.9 nM
  agonist behaviour (inhibition of forskolin-stimulated cAMP production): full agonists
Human CB1 receptors [2]
  IC50: 2.84 ± 0.21 nM
  agonist behaviour (inhibition of forskolin-stimulated cAMP production): full agonists
CB1 receptors
  Ki: 1 nM
CB2 receptors
  Ki: 2.6 nM
Murine CB2 receptors
  Ki: 14.6 ± 1.2 nM
Human CB1 receptors [3]
  Ki: 1.66 ± 0.13 nM
  selectivity index (ratio Ki CB2 / Ki CB1): 9.9
Murine CB1 receptors
  Ki: 1.96 ± 0.13 nM
  selectivity index (ratio Ki CB2 / Ki CB1): 7.4
Human CB2 receptors [4]
  Ki: 16.4 ± 1.5 nM
